Source: ChEMBL document CHEMBL5241118, “4-Aminopyrazolopyrimidine scaffold and its deformation in the design of tyrosine and serine/threonine kinase inhibitors in medicinal chemistry” (RSC Med Chem, 2022)
pIC50, pKd, pKi: −log10 of the molar value. Several values for one entry are separate records, joined by “and”; a condition that tells them apart may be missing. Equal entries are not always repeated. Blank lines part the entries; values can stand above or below the compound they belong to.

How the values were obtained:
MV4-11 = experiment: Antitumor activity against human MV4-11 cells xenografted in athymic nu/nu mouse model assessed as tumor growth inhibition at 50 mg/kg administered a day measured after 14 days relative to control; format: functional; conditions: MV4-11, 336 h, time 14 day, read-out: TGI
[1] = biological target: Tyrosine-protein kinase BTK (Homo sapiens, UniProt Q06187); experiment: Inhibition of BTK (unknown origin) in the presence of ATP measured after 40 mins by radiometry analysis
[2] = Antiproliferative activity against human MINO cells assessed as reduction cell viability measured after 24 hrs by Cell Titer-Glo Luminescent Cell Viability Assay; format: functional, cell-based
JeKo-1 = experiment: Antiproliferative activity against human JeKo-1 cells assessed as reduction cell viability measured after 24 hrs by Cell Titer-Glo Luminescent Cell Viability Assay; format: functional, cell-based; conditions: JeKo-1, 24 h
Z-138 = experiment: Antiproliferative activity against human Z138 cells assessed as reduction cell viability measured after 24 hrs by Cell Titer-Glo Luminescent Cell Viability Assay; format: functional, cell-based; conditions: Z-138, 24 h
Maver1 = experiment: Antiproliferative activity against human MAVER-1 cells assessed as reduction cell viability measured after 24 hrs by Cell Titer-Glo Luminescent Cell Viability Assay; format: functional, cell-based; conditions: Maver1, 24 h
in vitro [3] = conditions: human, liver microsomes
Description: Half life in human liver microsomes

in vitro [4] = conditions: human, liver microsomes; remark: listed apart in the source
Description: Clearance in human liver microsomes

[5] = biological target: Tyrosine-protein kinase Lck (Homo sapiens, UniProt P06239); experiment: Binding affinity to LCK (unknown origin) assessed as dissociation constant
Sequence of Tyrosine-protein kinase Lck (P06239 whole entry): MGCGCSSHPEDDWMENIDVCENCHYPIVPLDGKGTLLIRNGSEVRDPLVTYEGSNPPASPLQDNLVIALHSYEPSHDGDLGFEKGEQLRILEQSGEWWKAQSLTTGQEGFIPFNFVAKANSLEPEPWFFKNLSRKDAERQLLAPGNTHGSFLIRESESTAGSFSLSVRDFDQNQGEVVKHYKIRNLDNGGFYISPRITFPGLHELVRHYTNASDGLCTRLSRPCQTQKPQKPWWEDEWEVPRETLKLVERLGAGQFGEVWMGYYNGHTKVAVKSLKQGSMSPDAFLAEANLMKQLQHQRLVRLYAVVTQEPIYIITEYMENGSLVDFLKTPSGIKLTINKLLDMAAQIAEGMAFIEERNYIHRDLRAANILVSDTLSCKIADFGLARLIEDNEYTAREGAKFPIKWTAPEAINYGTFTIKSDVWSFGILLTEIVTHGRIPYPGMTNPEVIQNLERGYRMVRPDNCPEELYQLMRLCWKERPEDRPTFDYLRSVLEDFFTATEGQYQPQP

[6] = biological target: Tyrosine-protein kinase Fgr (Homo sapiens, UniProt P09769); experiment: Binding affinity to FGR (unknown origin) assessed as dissociation constant
Sequence of Tyrosine-protein kinase Fgr (P09769 whole entry): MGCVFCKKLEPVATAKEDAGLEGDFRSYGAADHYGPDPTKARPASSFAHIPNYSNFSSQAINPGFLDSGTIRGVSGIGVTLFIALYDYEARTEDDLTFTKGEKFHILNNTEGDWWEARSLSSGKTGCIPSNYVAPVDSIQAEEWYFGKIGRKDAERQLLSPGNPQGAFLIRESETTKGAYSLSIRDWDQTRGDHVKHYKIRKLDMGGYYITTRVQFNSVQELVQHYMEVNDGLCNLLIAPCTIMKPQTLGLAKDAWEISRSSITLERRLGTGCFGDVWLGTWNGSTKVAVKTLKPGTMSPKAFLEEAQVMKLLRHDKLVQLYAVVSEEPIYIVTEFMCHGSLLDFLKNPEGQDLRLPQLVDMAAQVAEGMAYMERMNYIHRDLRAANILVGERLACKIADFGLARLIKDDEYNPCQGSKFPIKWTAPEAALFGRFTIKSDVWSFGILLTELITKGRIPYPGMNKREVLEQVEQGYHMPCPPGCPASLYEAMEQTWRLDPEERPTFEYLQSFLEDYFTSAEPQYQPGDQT

[7] = biological target: Tyrosine-protein kinase Yes (Homo sapiens, UniProt P07947); experiment: Binding affinity to YES (unknown origin) assessed as dissociation constant
[8] = biological target: Proto-oncogene tyrosine-protein kinase Src (Homo sapiens, UniProt P12931); experiment: Binding affinity to c-Src (unknown origin) assessed as inhibition constant
[9] = biological target: T1, Phosphatidylinositol 4,5-bisphosphate 3-kinase catalytic subunit delta isoform (Homo sapiens, UniProt O00329); experiment: Inhibition of PI3Kdelta (unknown origin) at 1 uM
T1 sequence (O00329 whole entry): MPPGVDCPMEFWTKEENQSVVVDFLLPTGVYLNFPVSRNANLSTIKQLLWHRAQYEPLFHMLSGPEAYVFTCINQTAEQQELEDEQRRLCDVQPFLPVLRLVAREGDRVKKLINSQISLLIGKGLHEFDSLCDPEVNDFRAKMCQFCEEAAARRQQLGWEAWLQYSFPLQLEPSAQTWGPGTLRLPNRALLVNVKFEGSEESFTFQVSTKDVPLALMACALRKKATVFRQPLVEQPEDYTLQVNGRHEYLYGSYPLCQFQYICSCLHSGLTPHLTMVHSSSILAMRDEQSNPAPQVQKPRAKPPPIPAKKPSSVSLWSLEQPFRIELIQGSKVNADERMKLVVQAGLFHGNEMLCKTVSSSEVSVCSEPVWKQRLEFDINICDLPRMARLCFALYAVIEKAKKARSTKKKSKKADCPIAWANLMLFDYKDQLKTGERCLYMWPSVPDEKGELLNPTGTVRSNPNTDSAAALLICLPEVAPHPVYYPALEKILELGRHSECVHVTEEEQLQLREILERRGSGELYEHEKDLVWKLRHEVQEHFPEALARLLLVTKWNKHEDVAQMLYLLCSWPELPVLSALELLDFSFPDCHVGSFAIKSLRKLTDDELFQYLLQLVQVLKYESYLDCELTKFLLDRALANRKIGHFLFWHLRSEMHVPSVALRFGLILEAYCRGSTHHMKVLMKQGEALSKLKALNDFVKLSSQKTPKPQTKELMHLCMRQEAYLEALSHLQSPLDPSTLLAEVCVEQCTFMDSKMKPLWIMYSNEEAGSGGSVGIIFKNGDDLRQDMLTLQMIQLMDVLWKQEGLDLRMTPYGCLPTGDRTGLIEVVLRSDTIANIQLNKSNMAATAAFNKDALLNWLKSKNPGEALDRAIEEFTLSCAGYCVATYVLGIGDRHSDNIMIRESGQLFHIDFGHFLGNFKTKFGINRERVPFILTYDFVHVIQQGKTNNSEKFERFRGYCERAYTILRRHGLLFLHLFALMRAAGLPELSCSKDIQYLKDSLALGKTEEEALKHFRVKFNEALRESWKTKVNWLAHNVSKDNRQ

[10] = biological target: T2, Epidermal growth factor receptor (Homo sapiens, UniProt P00533); experiment: Inhibition of human recombinant His-tagged EGFR expressed in baculovirus using poly-Gluo-Tyr as a substrate measured after 24 hrs by western blot analysis
T2 sequence (P00533 whole entry): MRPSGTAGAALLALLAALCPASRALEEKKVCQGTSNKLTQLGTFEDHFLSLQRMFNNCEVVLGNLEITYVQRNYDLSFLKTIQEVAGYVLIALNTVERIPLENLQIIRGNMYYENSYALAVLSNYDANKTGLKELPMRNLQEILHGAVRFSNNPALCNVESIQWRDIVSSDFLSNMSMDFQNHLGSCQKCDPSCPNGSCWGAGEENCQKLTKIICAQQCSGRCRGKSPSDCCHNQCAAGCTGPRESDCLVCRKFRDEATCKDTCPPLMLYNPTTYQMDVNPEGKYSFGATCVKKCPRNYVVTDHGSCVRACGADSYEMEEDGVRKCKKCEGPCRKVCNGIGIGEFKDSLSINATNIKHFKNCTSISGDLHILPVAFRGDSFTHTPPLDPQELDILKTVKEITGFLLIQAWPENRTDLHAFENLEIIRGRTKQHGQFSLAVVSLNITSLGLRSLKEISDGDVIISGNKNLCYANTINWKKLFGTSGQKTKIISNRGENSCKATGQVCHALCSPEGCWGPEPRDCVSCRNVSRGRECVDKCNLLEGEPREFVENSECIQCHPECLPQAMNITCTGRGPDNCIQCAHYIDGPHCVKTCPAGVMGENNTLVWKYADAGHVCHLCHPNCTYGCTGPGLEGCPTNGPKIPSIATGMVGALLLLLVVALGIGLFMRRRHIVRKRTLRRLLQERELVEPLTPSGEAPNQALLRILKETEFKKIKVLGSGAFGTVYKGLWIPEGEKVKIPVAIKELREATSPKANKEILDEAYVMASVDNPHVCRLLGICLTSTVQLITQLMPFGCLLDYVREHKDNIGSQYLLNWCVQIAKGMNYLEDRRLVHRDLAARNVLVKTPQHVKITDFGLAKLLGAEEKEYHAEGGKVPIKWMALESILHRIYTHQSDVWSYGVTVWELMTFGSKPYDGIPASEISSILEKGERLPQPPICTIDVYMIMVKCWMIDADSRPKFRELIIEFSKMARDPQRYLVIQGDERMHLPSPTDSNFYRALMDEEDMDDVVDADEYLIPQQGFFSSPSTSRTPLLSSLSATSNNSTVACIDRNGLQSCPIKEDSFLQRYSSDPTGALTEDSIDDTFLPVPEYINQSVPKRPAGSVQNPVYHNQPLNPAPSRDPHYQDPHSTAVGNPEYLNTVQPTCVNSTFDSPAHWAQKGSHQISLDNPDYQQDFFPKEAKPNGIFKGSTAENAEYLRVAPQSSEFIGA

[11] = biological target: T3, Fibroblast growth factor receptor 3 (Homo sapiens, UniProt P22607); experiment: Inhibition of FGFR3 (unknown origin)
T3 sequence (P22607 whole entry): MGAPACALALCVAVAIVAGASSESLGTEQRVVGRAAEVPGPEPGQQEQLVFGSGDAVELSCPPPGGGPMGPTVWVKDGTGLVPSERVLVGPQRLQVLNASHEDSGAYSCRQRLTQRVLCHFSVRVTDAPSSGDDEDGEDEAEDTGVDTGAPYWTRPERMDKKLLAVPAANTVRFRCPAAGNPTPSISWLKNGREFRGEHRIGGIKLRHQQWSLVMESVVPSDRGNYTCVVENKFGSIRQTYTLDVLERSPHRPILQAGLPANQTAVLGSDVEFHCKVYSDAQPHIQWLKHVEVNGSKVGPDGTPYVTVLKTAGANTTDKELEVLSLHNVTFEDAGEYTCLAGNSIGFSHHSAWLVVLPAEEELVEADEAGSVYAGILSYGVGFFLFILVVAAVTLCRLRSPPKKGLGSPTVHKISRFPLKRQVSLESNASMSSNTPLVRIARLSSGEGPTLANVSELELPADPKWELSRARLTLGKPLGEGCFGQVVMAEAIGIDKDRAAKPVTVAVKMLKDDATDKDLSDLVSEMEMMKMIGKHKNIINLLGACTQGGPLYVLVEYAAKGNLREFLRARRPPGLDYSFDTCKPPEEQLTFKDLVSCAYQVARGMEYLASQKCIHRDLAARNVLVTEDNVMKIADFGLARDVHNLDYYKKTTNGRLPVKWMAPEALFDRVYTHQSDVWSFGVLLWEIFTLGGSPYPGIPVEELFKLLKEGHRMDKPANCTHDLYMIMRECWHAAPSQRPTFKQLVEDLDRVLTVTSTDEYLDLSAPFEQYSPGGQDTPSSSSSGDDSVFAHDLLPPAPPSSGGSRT

[12] = biological target: Vascular endothelial growth factor receptor 2 (Homo sapiens, UniProt P35968); experiment: Inhibition of VEGFR2 (unknown origin)
[13] = biological target: Fibroblast growth factor receptor 1 (Homo sapiens, UniProt P11362); experiment: Inhibition of human recombinant FGFR1
Sequence of Fibroblast growth factor receptor 1 (P11362 whole entry): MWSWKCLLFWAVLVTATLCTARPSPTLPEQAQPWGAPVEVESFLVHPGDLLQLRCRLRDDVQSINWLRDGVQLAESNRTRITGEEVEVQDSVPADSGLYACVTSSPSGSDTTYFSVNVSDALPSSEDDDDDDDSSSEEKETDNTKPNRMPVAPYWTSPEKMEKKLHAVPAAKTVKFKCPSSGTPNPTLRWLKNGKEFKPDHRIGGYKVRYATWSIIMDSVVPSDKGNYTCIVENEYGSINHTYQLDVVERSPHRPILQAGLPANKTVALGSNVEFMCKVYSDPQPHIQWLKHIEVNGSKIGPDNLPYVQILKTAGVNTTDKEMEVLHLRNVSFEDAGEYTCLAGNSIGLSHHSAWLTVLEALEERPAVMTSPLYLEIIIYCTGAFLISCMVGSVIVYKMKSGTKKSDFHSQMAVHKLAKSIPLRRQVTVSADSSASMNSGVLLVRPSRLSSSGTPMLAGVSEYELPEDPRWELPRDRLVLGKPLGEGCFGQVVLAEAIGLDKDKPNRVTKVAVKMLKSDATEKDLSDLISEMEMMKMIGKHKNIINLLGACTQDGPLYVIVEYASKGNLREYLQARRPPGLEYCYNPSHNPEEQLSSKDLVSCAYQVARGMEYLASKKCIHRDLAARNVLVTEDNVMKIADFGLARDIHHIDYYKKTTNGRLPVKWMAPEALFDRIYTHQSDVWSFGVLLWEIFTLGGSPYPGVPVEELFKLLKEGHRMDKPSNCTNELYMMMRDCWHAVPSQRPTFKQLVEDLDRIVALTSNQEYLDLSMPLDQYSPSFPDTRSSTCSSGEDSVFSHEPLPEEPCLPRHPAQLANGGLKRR

[14] = biological target: Fibroblast growth factor receptor 2 (Homo sapiens, UniProt P21802); experiment: Inhibition of human recombinant FGFR2
[15] = biological target: T3, Fibroblast growth factor receptor 3; experiment: Inhibition of human recombinant FGFR3
[16] = biological target: Fibroblast growth factor receptor 4 (Homo sapiens, UniProt P22455); experiment: Inhibition of human recombinant FGFR4
animal or person = format: functional; conditions: Homo sapiens, HCC, 336 h, time 14 day, read-out: TGI
Description: Antitumor activity against human HCC cells xenografted in athymic nu/nu mouse model assessed as tumor growth inhibition at 50 mg/kg measured after 14 days relative to control

NCI-H1581 = experiment: Antitumor activity against human NCI-H1581 cells xenografted in athymic nu/nu mouse model assessed as tumor growth inhibition at 25 mg/kg measured after 14 days relative to control; conditions: NCI-H1581, 336 h, read-out: TGI
[17] = biological target: T2, Epidermal growth factor receptor; experiment: Inhibition of wild type EGFR (unknown origin)
[18] = biological target: Epidermal growth factor receptor (Homo sapiens, UniProt P00533, C797S/T790M); experiment: Inhibition of EGFR T790M/C797S mutant (unknown origin)
Sequence of Epidermal growth factor receptor (Homo sapiens, UniProt P00533, C797S/T790M) (P00533 25-1210 T790M/C797S limits assumed): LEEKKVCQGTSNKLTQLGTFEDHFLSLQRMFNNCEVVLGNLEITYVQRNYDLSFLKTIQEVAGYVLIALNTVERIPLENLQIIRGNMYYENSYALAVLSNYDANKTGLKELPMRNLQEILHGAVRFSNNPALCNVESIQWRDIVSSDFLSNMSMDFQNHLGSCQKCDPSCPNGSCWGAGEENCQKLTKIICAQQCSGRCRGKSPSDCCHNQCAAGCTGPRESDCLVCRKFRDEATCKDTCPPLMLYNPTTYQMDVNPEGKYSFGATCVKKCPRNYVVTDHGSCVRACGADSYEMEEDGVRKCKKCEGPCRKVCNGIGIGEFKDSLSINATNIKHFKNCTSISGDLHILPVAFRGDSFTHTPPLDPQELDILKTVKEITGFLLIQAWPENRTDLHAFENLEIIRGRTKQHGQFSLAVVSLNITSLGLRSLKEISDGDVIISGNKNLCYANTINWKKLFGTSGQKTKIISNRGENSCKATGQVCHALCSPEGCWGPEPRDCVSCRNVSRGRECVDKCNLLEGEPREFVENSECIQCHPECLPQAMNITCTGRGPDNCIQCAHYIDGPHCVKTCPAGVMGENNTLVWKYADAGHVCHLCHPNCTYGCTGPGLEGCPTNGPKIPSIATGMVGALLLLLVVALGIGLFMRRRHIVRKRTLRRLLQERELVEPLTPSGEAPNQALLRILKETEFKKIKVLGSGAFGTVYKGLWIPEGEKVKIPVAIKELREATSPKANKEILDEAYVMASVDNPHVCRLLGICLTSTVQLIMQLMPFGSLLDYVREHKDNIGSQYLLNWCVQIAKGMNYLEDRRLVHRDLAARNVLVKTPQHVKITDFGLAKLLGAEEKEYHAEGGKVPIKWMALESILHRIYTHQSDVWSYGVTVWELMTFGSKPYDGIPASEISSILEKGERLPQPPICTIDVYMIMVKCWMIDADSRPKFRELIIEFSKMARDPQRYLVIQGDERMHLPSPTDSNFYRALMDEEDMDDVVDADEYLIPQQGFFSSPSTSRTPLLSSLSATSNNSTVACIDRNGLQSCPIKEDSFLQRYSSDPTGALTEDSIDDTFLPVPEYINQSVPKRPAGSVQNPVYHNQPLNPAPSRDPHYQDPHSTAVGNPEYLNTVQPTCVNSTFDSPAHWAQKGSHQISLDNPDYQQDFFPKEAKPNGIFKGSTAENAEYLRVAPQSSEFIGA

[19] = biological target: Receptor tyrosine-protein kinase erbB-2 (Homo sapiens, UniProt P04626); experiment: Inhibition of HER2 (unknown origin)
[20] = biological target: T2, Epidermal growth factor receptor; experiment: Inhibition of EGFR (unknown origin)
[21] = biological target: Tyrosine-protein kinase JAK3 (Homo sapiens, UniProt P52333); experiment: Inhibition of JAK3 (unknown origin)
[22] = biological target: Receptor tyrosine-protein kinase erbB-4 (Homo sapiens, UniProt Q15303); experiment: Inhibition of HER4 (unknown origin)
[23] = Inhibition of 1R (unknown origin); set-up: species or system Homo sapiens

pIC50 [1]: 7.44
half-life (in vitro [3]): 16.8 min
microsomal CLint (in vitro [4]): 82.5 µL/min/mg
SMILES: Nc1ncnc2c1c(-c1ccc(Oc3ccccc3)nc1)nn2[C@@H]1CCCN(C(=O)CCl)C1
pIC50 [2]: 6.40
pIC50 (JeKo-1): 6.40
pIC50 (Z-138): 6.40
pIC50 (Maver1): 6.40

pIC50 [9]: 9.00
SMILES: Nc1ncnc2c1c(-c1cc(O)c(Br)c(F)c1)nn2[C@H]1CCc2ccccc21

pIC50 [11]: 6.58
pIC50 [12]: 7.06
SMILES: C#CCO[C@@H]1[C@H](C)[C@@H](COS(=O)(=O)C=C)O[C@H]1n1nc(-c2ccc(C)cc2)c2c(N)ncnc21

pIC50 [9]: 9.57
SMILES: Nc1ncnc2c1c(-c1cc(O)c(Br)c(F)c1)nn2C1CCc2ccccc2C1 (centres undefined)

pIC50 [13]: > 9.52
pIC50 [14]: 8.96
pIC50 [15]: > 9.52
pIC50 [16]: 9.30
SMILES: C=CC(=O)N1CC[C@H](c2nc(-c3cc4cc(Br)cc(OC)c4s3)c3c(N)nccn23)C1
inhibition in vivo at 50 mg/kg (animal or person): 97.8%
inhibition in vivo at 25 mg/kg (NCI-H1581): 84.6%

pIC50 [19]: 7.89
pIC50 [20]: 7.19
pIC50 [21]: 7.48
pIC50 [22]: 8.07
SMILES: C=CC(=O)N1CCC[C@H](n2nc(C(=O)c3ccc(CC(=O)N(C)C)c(C)c3C)c3c(N)ncnc32)C1

pIC50 [23]: 5.55
SMILES: Nc1ncnc2c1c(-c1cccc(OCc3ccccc3)c1)cn2[C@H]1C[C@H](CN2CCCC2)C1

Continued, compound first:

SMILES: CN(C)CC(=O)N1CCC[C@@H](n2nc(-c3ccc(Oc4ccccc4)cc3)c3c(N)ncnc32)C1
inhibition in vivo at 50 mg/kg (MV4-11): 88%

SMILES: Nc1ncnc2c1c(-c1ccc(Cl)cc1)nn2-c1cccc(-c2cnnn2Cc2cccc(-c3ccccc3)c2)c1
pKd [5]: 7.07 and 6.80
pKd [6]: 6.62
pKd [7]: 6.14
pKi [8]: 7.36

SMILES: C=CC(=O)N1CCC[C@@H](n2nc(-c3ccc(Oc4ccccc4)cc3)c3c(N)ncnc32)C1 [IBRUTINIB]
pIC50 [2]: 4.80
pIC50 (JeKo-1): 5.96
pIC50 (Z-138): 5.01
pIC50 (Maver1): 5.11

SMILES: COc1cccc(-c2cn(-c3ccc(CCN4CCC(O)CC4)cc3)c3ncnc(N)c23)c1
pIC50 [10]: 6.82

SMILES: C=CC(=O)N1CCC[C@@H](n2nc(-c3cn(C)c4ccccc34)c3c(N)ncnc32)C1
pIC50 [17]: 7.24
pIC50 [18]: 8.72
